Here are results for three compounds from ChEMBL document CHEMBL1212749, “In vitro activity of mirincamycin (U24729A) against Plasmodium falciparum isolates from Gabon” (Antimicrob Agents Chemother, 2010).

For test [1], the system named is Plasmodium falciparum. Description: Ratio of IC50 for Plasmodium falciparum 3D7A after 6 days to IC50 for Plasmodium falciparum 3D7A after 3 days by HRP2 enzyme-linked immunosorbent assay. The format is functional.
In test [2] the test system is Plasmodium falciparum. As to the kind of experiment: Antimalarial activity against Plasmodium falciparum clinical isolate after 6 days by HRP2 enzyme-linked immunosorbent assay. The test is classed as functional, organism-based. Particulars: 144 h.

Molecules are shown by their SMILES. Where only a bound is given, the exact number is not on record here.

In the case of `CCCCCC1CN[C@@H](C(=O)N[C@H]([C@H]2O[C@H](SC)[C@H](O)[C@@H](O)[C@H]2O)[C@@H](C)Cl)C1` (stereo partly drawn), the Ratio IC50 in test [1] was more than 10000.
In the case of `CCC[C@@H]1C[C@@H](C(=O)N[C@@H]([C@H]2O[C@H](SC)[C@H](O)[C@@H](O)[C@H]2O)[C@H](C)Cl)N(C)C1` [CLINDAMYCIN], inhibition in test [2] was half-maximal at 11.6 nM (IC50).
On the same count and under the same terms, with `C[C@H]1c2cccc(O)c2C(=O)C2=C(O)[C@]3(O)C(=O)C(C(N)=O)=C(O)[C@@H](N(C)C)[C@@H]3[C@@H](O)[C@@H]21` [DOXYCYCLINE] the figure was 720 nM.
